{"source": "patent US20250361248A1", "about": "“PROTAC COMPOUND WITH CYCLOPHILIN A DEGRADATION ACTIVITY, PREPARATION METHOD THEREFOR, AND USE THEREOF” (priority 2022, published 2025)", "key": {"A549 cells [1]": {"system": "A549 cells", "assay": "Effect on A549 cell activity by CCK-8 method", "format": "cell-based", "conditions": "0 to 10^5 nM, 12 hours", "method": "(§1) (1) A549 cells in the logarithmic phase were collected, the concentration of the cell suspension was adjusted, and 100 uL was added per well. The cells to be tested were plated to a density of 10^3-10^4 cells/well and incubated at 37° C. under 5% CO2 until the bottom of the wells was covered by a single layer of cells.\n(2) Different concentrations of the compound of Formula (I) were added: 0, 10, 10^2, 10^3, 10^4, and 10^5 nM/well, with 3 replicate wells set, and incubated at 37° C. under 5% CO2 for 12 hours.\n• (1) 10 μL CCK8 reagent was added to the above cells in each well and reacted for 2 h. • (2) The incubation was terminated, and the culture medium in the wells was carefully aspirated. • (3) The absorbance of each well was measured using a microplate reader with a wavelength of 450 nm. • (4) The absorbance ratio between the experimental group and the control group was calculated as follows: Cell viability=(Absorbance of the experimental group−Blank control)÷(Absorbance of the control group−Blank control)×100%."}, "CypA [2]": {"target": "T1, CypA (Homo sapiens, UniProt P62937)", "T1 construct": "A549 cells in the logarithmic phase were collected; endogenous in cells; host or cells: A549", "T1 sequence (P62937 whole entry)": "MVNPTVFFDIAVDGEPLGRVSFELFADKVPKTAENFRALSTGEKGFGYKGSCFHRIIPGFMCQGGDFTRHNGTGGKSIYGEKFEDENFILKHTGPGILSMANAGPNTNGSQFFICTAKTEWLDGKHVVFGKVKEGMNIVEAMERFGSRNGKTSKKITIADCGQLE", "assay": "CypA degradation in A549 cells by Western Blot", "format": "cell-based", "conditions": "A549 cell line, 12 hours", "method": "as §1\n(2) Different concentrations of the compound of Formula I were added: 0, 10, 10^2, 10^3, 10^4, and 10^5 nM/well, with 3 replicate wells set, and incubated at 37° C. under 5% CO2 for 12 hours.\n(1) The treated cells were scraped off from the culture medium, suspended thoroughly, and then collected by centrifugation at 300 g for 5 minutes. After washing with PBS once, the PBS was discarded. […]\n(3) The specific steps for Western Blot (WB) detection were as follows: • 1) An appropriate concentration of SDS-PAGE gel was prepared: the concentration of a separating gel of 10% and the concentration of a stacking gel of 5%. • 2) Sample preparation: protein samples were prepared according to experimental requirements, centrifuged, mixed well, and loaded into the loading wells of SDS-PAGE gel. The loading volume was adjusted appropriately according to the protein quantification results. • 3) Electrophoresis: the power was turned on, and the protein samples were run at 80 volts in the stacking gel. […]"}, "CypA [3]": {"target": "CypA (Mus musculus, UniProt P17742)", "sequence (P17742 whole entry)": "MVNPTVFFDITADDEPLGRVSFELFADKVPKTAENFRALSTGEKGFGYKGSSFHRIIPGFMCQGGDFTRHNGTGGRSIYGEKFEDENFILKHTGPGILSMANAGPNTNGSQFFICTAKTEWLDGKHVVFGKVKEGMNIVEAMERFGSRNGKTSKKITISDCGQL", "format": "in vivo, C57BL/6 mice", "conditions": "10 mg/kg of body weight/day from 24 h after IBV infection, 7 days after infection"}, "[4]": {"system": "IBV-/Guangxi-Jiangzhou/1352/2018", "assay": "IBV-induced pneumonia mouse model: lung index, lung pathology and pathological scores", "parameters": "species or system C57BL/6 mice", "conditions": "in vivo"}, "[5]": {"system": "IL-1β, IL-6, TNF-α, and IFN-γ", "parameters": "species or system C57BL/6 mice", "conditions": "mouse, in vivo, 10 mg/kg/day"}, "rheumatoid arthritis": {"system": "rheumatoid arthritis", "assay": "Rat rheumatoid arthritis model (Freund complete adjuvant)", "format": "in vivo, Lewise rats", "conditions": "10 mg/kg tail vein three times/week", "method": "The BCG vaccine was inactivated in a water bath at 80° C. for 1 h, ground thoroughly with incomplete Freund adjuvant, and mixed well to prepare 15 mg/mL Freund complete adjuvant (FCA). Lewise rats were divided into 4 groups: blank group (PBS), untreated group (UT), treatment group 1 (compound), and treatment group 2 (MTX (methotrexate)), with 5 rats in each group and a body weight of […]. Except for the PBS group, rats were intradermally injected with 0.1 mL of FCA in the right hind paw. On day 14 after injection, rats in treatment group 1 (compound) were injected with the compound (10 mg/kg of body weight, dissolved in 100 μL of PBS) through the tail vein three times/week: rats in treatment group 2 (MTX (methotrexate)) were intraperitoneally injected with methotrexate (1.2 mg/kg of body weight) three times/week.\nThe circumference of the metatarsophalangeal joint was measured. The circumference of the ankle joint of the left hind paw (on the secondary lesion side) of all rats was measured once before modeling, before administration, and 3 weeks after administration, respectively, and the percentage of joint swelling was calculated.\nThe joint index was determined by joint swelling score before administration (Day 0) and 3 weeks after administration. Scoring was carried out based on the redness and swelling degree of the ankle and toe joints of the front and rear limbs of rats and the affected joint index, as follows: 0 for normal; 1 for the redness and swelling of one joint; 2 for the redness and swelling of two or more joints; 3 for severe redness and swelling of the paw below the ankle joint; 4 for the redness and swelling of the entire paw including the ankle joint and inability to bear weight. The limbs were scored separately; and the cumulative sum of the scores was the joint index.\n(1) On the day 21 of administration, rats were euthanized after blood collection. […]\n(2) Joint synovial proliferation and the degree of sub-synovial inflammation were observed under a light microscope, and synovial cell proliferation was scored."}, "A549 cells [6]": {"system": "A549 cells", "assay": "Migration and infiltration of lung cancer cells, Transwell chambers", "format": "cell-based", "method": "as §1, with “10^3 to 10^4” for “10^3-10^4”\n(2) Different concentrations of the compound represented by Formula I were added: 0, 10, 10^2, 10^3, 10^4, and 10^5 nM/well, with 3 replicate wells set, and incubated at 37° C. under 5% CO2 for 12 hours.\nThe upper chamber of a 24-well cell culture insert ([…] pore size) was coated (no migration) or (invasive) with a matrix (1 mg/mL) and dried at 37° C. for 30 min.\n(3) A549/WT and A549/CypA-cells were trypsinized, washed, and suspended in serum-free DMEM after treatment with 20 ng/ml TGF-β for 48 h.\n(1) DMEM containing 10% fetal bovine serum was added to the lower chamber per approximately 5×10^4 cells inserted in the upper chamber.\n(2) After incubation for 6 h (migration) or 24 h (invasion), non-migrating or […] cells residing on the upper part of the insert membrane were removed with a cotton swab.\n(3) The cells that migrated to the underside of the membrane were fixed and stained with 2% crystal violet in ethanol.\n(4) The stained cells were observed and counted under a Japan Olympus CKX41 microscope."}}, "data": [{"smiles": "Cc1ncsc1-c1ccc(CNC(=O)[C@@H]2C[C@@H](O[Si](C)(C)C(C)(C)C)CN2C(=O)[C@@H](NC(=O)COCCCCOCCCCOc2cccc(O)c2C(=O)NC(=O)NC2CCCCC2)C(C)(C)C)cc1", "note": "[Formula I]", "values": [{"measurement": "cell viability", "setting": "A549 cells [1]", "value": "above 80%"}, {"measurement": "DC50", "setting": "CypA [2]; WB grayscale analysis, read-out: half-degradation concentration on CypA", "value": "< 100", "unit": "nM"}, {"measurement": "degradation effect on CypA protein", "setting": "CypA [2]; WB, 0 to 10^5 nM", "value": "could be clearly observed"}, {"measurement": "expression of CypA in mouse lung tissue", "setting": "CypA [3]", "value": "significantly reduce"}, {"measurement": "lung injury (lung index, pathology, pathological scores)", "setting": "[4]", "value": "significantly alleviate lung injury"}, {"measurement": "expression of IFN-γ in the lung tissue", "setting": "[5]", "value": "significantly reduce"}, {"measurement": "expression of IL-1β in the lung tissue", "setting": "[5]", "value": "significantly reduce"}, {"measurement": "expression of IL-6 in the lung tissue", "setting": "[5]", "value": "significantly reduce"}, {"measurement": "expression of TNF-α in the lung tissue", "setting": "[5]", "value": "significantly reduce"}, {"measurement": "joint index of the ankle joint", "setting": "rheumatoid arthritis; 3 weeks after administration", "value": "reduce the joint index"}, {"measurement": "joint swelling", "setting": "rheumatoid arthritis; 3 weeks after administration", "value": "significantly relieve joint swelling"}, {"measurement": "inflammation of the ankle joint (ankle pathological scores, HE)", "setting": "rheumatoid arthritis; day 21 of administration", "value": "alleviate the inflammation"}, {"measurement": "infiltration of lung cancer cells", "setting": "A549 cells [6]; A549, Transwell with matrix, 24 h", "value": "significantly reduce"}, {"measurement": "migration of lung cancer cells", "setting": "A549 cells [6]; A549, Transwell, 6 h", "value": "significantly reduce"}]}]}
